Data set [1] has as its system RAW264.7. Put plainly: Antiinflammatory activity against mouse RAW264.7 cells assessed as inhibition of LPS-induced nitrite accumulation after 24 hrs by Griess reagent method. It counts as functional, cell-based. The note with it: for IC50: RAW264.7, 24 h. On the technique in general: The Griess reaction detects nitrite, a stable product of nitric oxide.
Data set [2] is described as follows: Inhibition of NF-kappaB activation in LPS-stimulated mouse RAW264.7 cells assessed as relative luciferase activity after 24 hrs by dual reporter gene assay. It counts as cell-based. The settings on record: RAW264.7, 24 h. (In a reporter assay the amount or activity of a reporter protein is the signal.)
Data set [3] in a line: (§1) Cytotoxicity against mouse RAW264.7 cells assessed as cell viability at 5 uM after 24 hrs by MTT assay. The note with it: RAW264.7 cells, read-out: Activity. In kind it is cell-based. On the technique in general: Formazan colour is commonly taken as a measure of viable cells.
Data set [4] concerns RAW264.7. As to the kind of experiment: Inhibition of iNOS mRNA expression in LPS-stimulated mouse RAW264.7 cells at 5 uM after 8 hrs by RT-PCR. It counts as functional, cell-based.
Data set [5] deals with RAW264.7. Put plainly: Antiinflammatory activity against mouse RAW264.7 cells assessed as inhibition of LPS-induced iNOS expression at 0.1 to 5 uM after 24 hrs by Western blotting. It counts as functional, cell-based.
For data set [6], the system named is RAW264.7. As to the kind of experiment: Cytotoxicity against mouse RAW264.7 cells after 24 hrs by MTT assay. It counts as cell-based. The note with it: RAW264.7, 24 h.
Data set [7] relates to RAW264.7. As to the kind of experiment: (§2) Cytotoxicity against mouse RAW264.7 cells assessed as cell viability at 25 uM after 24 hrs by MTT assay. It counts as cell-based. The settings on record: raw264.7, 24 h, 25 µM.
Data set [8] is described as follows: as §2. In kind it is cell-based. The settings on record: RAW264.7 cells, read-out: Activity.
For data set [9], the system named is RAW264.7. As to the kind of experiment: Inhibition of NF-kappaB activation in LPS-stimulated mouse RAW264.7 cells at 1 uM after 24 hrs by Western blotting. In kind it is cell-based.
The nature of data set [10]: (§3) Cytotoxicity against mouse RAW264.7 cells assessed as cell viability at 10 uM after 24 hrs by MTT assay. In kind it is cell-based. The settings on record: RAW264.7 cells, read-out: Activity.
The target in data set [11] is T1, Inhibitor of nuclear factor kappa-B kinase subunit beta (Mus musculus) (UniProt O88351).
T1 sequence (whole entry): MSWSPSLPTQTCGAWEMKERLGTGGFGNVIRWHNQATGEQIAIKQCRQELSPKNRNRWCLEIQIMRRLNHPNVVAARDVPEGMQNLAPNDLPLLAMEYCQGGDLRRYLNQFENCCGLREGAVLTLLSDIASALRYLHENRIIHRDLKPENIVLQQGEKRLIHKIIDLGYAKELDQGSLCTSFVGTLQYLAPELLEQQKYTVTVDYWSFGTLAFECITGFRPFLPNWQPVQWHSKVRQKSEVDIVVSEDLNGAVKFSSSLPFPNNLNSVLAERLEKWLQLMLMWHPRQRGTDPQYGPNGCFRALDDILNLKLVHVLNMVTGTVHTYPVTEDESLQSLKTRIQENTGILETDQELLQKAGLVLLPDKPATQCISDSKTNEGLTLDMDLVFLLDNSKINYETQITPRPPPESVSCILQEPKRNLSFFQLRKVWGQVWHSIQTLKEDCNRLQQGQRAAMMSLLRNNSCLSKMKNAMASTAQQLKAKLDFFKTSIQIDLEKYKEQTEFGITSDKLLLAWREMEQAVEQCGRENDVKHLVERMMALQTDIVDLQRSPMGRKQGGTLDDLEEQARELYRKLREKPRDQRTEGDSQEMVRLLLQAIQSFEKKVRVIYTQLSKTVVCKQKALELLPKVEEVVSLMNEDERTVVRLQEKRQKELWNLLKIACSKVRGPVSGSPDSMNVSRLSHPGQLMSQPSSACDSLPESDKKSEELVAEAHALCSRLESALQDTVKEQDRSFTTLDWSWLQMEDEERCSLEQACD
Put plainly: Inhibition of LPS-stimulated IkappaB degradation in mouse RAW264.7 cells assessed as cellular IkappaB level at 5 uM treated after LPS-stimulation for 24 hrs measured after 60 mins by Western blotting. In kind it is cell-based.

For data set [12], the system named is RAW264.7. As to the kind of experiment: Inhibition of NF-kappaB p65 subunit translocation into nucleus in LPS-stimulated mouse RAW264.7 cells assessed as p65 protein level at 1 uM pretreated for 1 hr before LPS challenge after 60 mins immunofluorescence microscopy. It counts as functional, cell-based.
Data set [13] relates to RAW264.7. As to the kind of experiment: Inhibition of NF-kappaB p65 subunit translocation into nucleus in LPS-stimulated mouse RAW264.7 cells assessed as p65 protein level at 5 uM treated after LPS-stimulation for 24 hrs measured after 60 mins by Western blotting. It counts as functional, cell-based.
Data set [14] relates to RAW264.7. The description is as §3. In kind it is cell-based. The settings on record: raw264.7, 24 h, 10 µM.
For data set [15], the system named is RAW264.7. The description is as §1. It counts as cell-based. The settings on record: raw264.7, 24 h, 5 µM.

The source made the active and inactive calls. The rule behind the calls is not given here. Bounds are passed on as bounds.

`C=C1C(=O)[C@]23[C@H](O)[C@H]1C[C@H](OC(C)=O)[C@H]2[C@]12CCCC(C)(C)[C@H]1C(=O)[C@]3(O)[C@H]2O` [XEROPHILUSIN F]: in the data set with RAW264.7 [1], the inhibition entry is “Dose-dependent effect”. The figures for the IC50 (with RAW264.7 [1]; in data set [2]; in the data set on RAW264.7 [6]) were 0.673 µM, 1.6 µM and 52.4 µM, respectively. Moreover, the viability at 24 h, 5 µM in data set [3] was more than 97.5%. Besides, the inhibition result with RAW264.7 [4] and in the data set with RAW264.7 [5] was “Active” in each case. The Activity entry with RAW264.7 [7] is listed as “Non-toxic”. Besides, the viability at 24 h, 25 µM in data set [8] was more than 97.5%. Moreover, the inhibition result with RAW264.7 [9] was “inactive”. In addition, the viability at 24 h, 10 µM in data set [10] is more than 97.5%. Besides, the result (in [11]; in the data set with RAW264.7 [12]; with RAW264.7 [13]) was Active.

With `C=C1C(=O)[C@]23[C@H](O)[C@H]1CC[C@H]2[C@]12CCC[C@@](C)(COC(C)=O)[C@H]1[C@H](O)[C@]3(O)OC2` [LONGIKAURIN B], the inhibition entry in the data set on RAW264.7 [1] was “Dose-dependent effect”. Further, the IC50 was found to be 0.435 µM in the data set on RAW264.7 [1], 1.2 µM in data set [2] and 44.8 µM in the data set with RAW264.7 [6]. In data set [3], the viability at 24 h, 5 µM is more than 97.5%. The inhibition entry in the data set with RAW264.7 [4], in the data set with RAW264.7 [5] and in the data set with RAW264.7 [9] was “Active” throughout. For the same compound, the viability at 24 h, 25 µM in data set [8] is more than 97.5%. For the same compound, the Activity entry in the data set with RAW264.7 [14] is “Non-toxic”. For the same compound, the viability at 24 h, 10 µM in data set [10] is more than 97.5%. For the same compound, the outcome in the data set on RAW264.7 [12] and in the data set with RAW264.7 [13] was Active.

For `C=C1C(=O)[C@@]23[C@@H]4O[C@H]5O[C@@]2(O)[C@@H](O)[C@@H]2C(C)(C)CCC[C@]52[C@@H]3CC[C@@H]14` [XEROPHILUSIN B], the inhibition result in the data set on RAW264.7 [1] is “Dose-dependent effect”. Moreover, the values for the IC50 (in the data set on RAW264.7 [1]; in data set [2]; in the data set on RAW264.7 [6]) were 0.225 µM, 0.7 µM and 10.1 µM, respectively. In addition, in the data set with RAW264.7 [15], the Activity entry was “Non-toxic”. In data set [3], the viability at 24 h, 5 µM is more than 97.5%. Besides, the inhibition entry with RAW264.7 [4], in the data set with RAW264.7 [5] and in the data set on RAW264.7 [9] was “Active” each time. Besides, in data set [8], the viability at 24 h, 25 µM was more than 97.5%. Besides, in [10], the viability at 24 h, 10 µM was more than 97.5%. The result in the data set on RAW264.7 [12] and with RAW264.7 [13] was Active.

Regarding `C=C1C(=O)[C@@]23[C@@H]4O[C@H]5O[C@@]2(O)[C@@H](O)[C@@H]2C(C)(C)CCC[C@]52[C@@H]3[C@@H](OC(C)=O)C[C@@H]14` [XEROPHILUSIN A], in the data set with RAW264.7 [1], the inhibition entry was “Dose-dependent effect”. Also, the results for the IC50 (in the data set on RAW264.7 [1]; in data set [2]; with RAW264.7 [6]) were 0.6 µM, 1.8 µM and 11.3 µM, respectively. The Activity entry with RAW264.7 [15] is listed as “Non-toxic”. For the same compound, in [3], the viability at 24 h, 5 µM is more than 97.5%. Also, the inhibition result in the data set with RAW264.7 [4], in the data set on RAW264.7 [5] and in the data set on RAW264.7 [9] was “Active” throughout. Besides, the viability at 24 h, 25 µM in data set [8] was more than 97.5%. For the same compound, the viability at 24 h, 10 µM in data set [10] is more than 97.5%. In addition, the result with RAW264.7 [12] and in the data set on RAW264.7 [13] was Active.

One may read the IC50 as the concentration at which inhibition is half-maximal.

The values are drawn from ChEMBL document CHEMBL1154256, “Inhibition of NF-kappaB activation and iNOS induction by ent-kaurane diterpenoids in LPS-stimulated RAW264.7 murine macrophages” (J Nat Prod, 2009).
